Source: patent US9957270B2, “Fused pyrimidine-based hydroxamate derivatives” (Agency for Science, Technology and Research, priority 2014, dated 2018)

Assays:
[1] = Microsomal stability, mouse liver microsomes
Procedure: (§1) GIBIO pooled human liver microsomes (HLM) (Cat # HMMCPL), mouse liver microsomes (MLM) (Cat # BCMCPL), and rat liver microsomes (RLM) (Cat # RTMCPL) were purchased from Life Technologies. […] Samples are incubated for 30, 45, or 60 min. Reaction is terminated with ice-cold acetonitrile 0.3% formic acid. Samples are subsequently centrifuged at 4° C. for 15 min at 20,000×g. The supernatant is analysed by LC-MS.
(§2) Compound in vitro metabolic stability was assayed using liver microsomes (LM) at 0.5 mg/mL of proteins, incubated for 30 min (mouse, MLM), 45 min (rat, RLM), 30 or 45 min (human, HLM). % of remaining parent compound was measured using LC-MS.

[2] = Microsomal stability, rat liver microsomes
Procedure: as §1, §2

[3] = Microsomal stability, human liver microsomes
Procedure: as §1, §2

[4] = tested on: MCF7; assay: Anti-proliferative assay (cellular IC50), MCF7; conditions: Homo sapiens, MCF7, 72 h, read-out: In Vitro Cellular IC50 MCF7
[5] = target: HDAC1 (Homo sapiens, UniProt Q13547); assay: HDAC enzyme assay, recombinant HDAC1
Sequence of HDAC1 (Q13547 whole entry): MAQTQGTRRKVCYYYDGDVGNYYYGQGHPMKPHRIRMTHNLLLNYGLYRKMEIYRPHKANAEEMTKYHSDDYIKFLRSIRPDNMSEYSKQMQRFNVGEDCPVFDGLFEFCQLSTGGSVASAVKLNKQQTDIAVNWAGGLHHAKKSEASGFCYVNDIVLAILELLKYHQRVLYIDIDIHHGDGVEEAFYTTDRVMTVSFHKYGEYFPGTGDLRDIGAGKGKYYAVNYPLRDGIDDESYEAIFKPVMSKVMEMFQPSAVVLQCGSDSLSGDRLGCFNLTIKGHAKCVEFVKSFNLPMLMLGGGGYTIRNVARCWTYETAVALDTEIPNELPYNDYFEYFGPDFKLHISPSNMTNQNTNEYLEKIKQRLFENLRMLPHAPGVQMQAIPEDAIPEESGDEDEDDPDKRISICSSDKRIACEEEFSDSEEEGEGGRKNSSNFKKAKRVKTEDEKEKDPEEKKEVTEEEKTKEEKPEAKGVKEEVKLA

[6] = tested on: K-562; assay: Anti-proliferative assay (cellular IC50), K-562; conditions: Homo sapiens, K562, 72 h, read-out: In Vitro Cellular IC50 K-562
[7] = tested on: COLO 205; assay: cells; conditions: Homo sapiens, COLO 205, 72 h, read-out: In Vitro Cellular IC50 COLO 205
[8] = target: T1, PI3Kα (Homo sapiens, UniProt P42336); assay: Kinase enzyme assay (ADP-Glo), PI3Kα; format: biochemical; conditions: read-out: In Vitro Enzymatic IC50 PI3Kα
T1 construct: purchased Invitrogen, or BPS Bioscience Inc., or SignalChem PV4788 / 40620 / P27-18H
T1 sequence (P42336 whole entry): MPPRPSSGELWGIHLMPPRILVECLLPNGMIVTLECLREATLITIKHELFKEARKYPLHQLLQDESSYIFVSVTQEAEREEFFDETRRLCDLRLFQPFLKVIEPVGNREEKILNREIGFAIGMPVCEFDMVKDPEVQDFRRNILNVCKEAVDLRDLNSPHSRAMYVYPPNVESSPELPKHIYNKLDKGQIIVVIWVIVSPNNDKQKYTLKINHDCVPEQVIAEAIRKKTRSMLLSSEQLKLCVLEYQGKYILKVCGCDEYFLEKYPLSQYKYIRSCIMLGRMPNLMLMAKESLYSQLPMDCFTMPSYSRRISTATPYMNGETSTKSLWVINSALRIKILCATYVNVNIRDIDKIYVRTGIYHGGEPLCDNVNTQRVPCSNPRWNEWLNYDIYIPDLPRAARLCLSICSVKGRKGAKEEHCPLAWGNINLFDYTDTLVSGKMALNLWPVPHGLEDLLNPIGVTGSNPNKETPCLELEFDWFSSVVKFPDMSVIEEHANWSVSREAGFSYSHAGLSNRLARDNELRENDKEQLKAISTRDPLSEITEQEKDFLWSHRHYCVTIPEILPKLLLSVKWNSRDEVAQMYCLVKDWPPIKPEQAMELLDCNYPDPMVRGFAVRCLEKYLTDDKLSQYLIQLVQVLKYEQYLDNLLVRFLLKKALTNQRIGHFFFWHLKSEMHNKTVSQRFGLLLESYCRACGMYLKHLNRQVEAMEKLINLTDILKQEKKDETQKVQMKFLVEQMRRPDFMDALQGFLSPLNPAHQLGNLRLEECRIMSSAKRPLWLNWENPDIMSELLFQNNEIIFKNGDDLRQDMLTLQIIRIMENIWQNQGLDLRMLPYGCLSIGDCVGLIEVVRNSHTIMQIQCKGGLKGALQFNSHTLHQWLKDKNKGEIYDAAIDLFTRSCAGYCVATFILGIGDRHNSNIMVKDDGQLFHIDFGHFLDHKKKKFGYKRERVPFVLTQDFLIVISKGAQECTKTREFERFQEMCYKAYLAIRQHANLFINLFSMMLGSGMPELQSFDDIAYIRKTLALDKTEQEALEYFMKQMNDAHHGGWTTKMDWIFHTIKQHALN
T1 sequence (P27986 whole entry partner): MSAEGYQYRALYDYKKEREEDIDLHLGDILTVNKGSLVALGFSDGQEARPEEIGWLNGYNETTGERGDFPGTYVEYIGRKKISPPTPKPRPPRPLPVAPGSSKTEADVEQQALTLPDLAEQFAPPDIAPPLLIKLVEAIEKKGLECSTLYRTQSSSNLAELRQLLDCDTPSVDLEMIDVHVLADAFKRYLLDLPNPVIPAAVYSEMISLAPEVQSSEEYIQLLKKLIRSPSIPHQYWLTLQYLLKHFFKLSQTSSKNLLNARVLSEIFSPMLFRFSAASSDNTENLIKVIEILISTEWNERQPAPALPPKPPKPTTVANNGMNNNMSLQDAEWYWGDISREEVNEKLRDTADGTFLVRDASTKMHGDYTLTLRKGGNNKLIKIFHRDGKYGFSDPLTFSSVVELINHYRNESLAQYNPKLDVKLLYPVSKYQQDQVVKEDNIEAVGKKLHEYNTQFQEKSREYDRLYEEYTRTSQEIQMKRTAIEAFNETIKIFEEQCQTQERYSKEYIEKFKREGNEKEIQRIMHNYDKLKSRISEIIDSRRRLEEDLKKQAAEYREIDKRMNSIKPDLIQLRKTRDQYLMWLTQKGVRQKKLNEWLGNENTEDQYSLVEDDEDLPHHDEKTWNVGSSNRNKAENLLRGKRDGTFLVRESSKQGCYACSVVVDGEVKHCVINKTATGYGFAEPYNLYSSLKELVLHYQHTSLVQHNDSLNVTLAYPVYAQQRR

[9] = tested on: MV-4-11; assay: cells; conditions: Homo sapiens, MV4-11, 72 h, read-out: In Vitro Cellular IC50 MV-4-11
[10] = target: HDAC (HeLa nuclear extracts); assay: HDAC enzyme assay, HeLa nuclear extracts; conditions: read-out: In Vitro Enzymatic IC50 HDAC (HeLa)
[11] = tested on: PC-3; assay: Anti-proliferative assay (cellular IC50), PC-3; conditions: Homo sapiens, PC-3, 72 h, read-out: In Vitro Cellular IC50 PC-3
[12] = tested on: MOLT-4; assay: Anti-proliferative assay (cellular IC50), MOLT-4; conditions: Homo sapiens, MOLT-4, 72 h, read-out: In Vitro Cellular IC50 MOLT-4
[13] = tested on: HepG2; assay: Anti-proliferative assay (cellular IC50), HepG2; conditions: Homo sapiens, HepG2, 72 h, read-out: In Vitro Cellular IC50 HepG2
[14] = tested on: HCT 116; assay: cells; conditions: Homo sapiens, HCT-116, 72 h, read-out: In Vitro Cellular IC50 HCT 116
[15] = target: T2, HDAC6 (Homo sapiens, UniProt Q9UBN7); assay: HDAC enzyme assay, recombinant HDAC6
T2 sequence (Q9UBN7 1-1215): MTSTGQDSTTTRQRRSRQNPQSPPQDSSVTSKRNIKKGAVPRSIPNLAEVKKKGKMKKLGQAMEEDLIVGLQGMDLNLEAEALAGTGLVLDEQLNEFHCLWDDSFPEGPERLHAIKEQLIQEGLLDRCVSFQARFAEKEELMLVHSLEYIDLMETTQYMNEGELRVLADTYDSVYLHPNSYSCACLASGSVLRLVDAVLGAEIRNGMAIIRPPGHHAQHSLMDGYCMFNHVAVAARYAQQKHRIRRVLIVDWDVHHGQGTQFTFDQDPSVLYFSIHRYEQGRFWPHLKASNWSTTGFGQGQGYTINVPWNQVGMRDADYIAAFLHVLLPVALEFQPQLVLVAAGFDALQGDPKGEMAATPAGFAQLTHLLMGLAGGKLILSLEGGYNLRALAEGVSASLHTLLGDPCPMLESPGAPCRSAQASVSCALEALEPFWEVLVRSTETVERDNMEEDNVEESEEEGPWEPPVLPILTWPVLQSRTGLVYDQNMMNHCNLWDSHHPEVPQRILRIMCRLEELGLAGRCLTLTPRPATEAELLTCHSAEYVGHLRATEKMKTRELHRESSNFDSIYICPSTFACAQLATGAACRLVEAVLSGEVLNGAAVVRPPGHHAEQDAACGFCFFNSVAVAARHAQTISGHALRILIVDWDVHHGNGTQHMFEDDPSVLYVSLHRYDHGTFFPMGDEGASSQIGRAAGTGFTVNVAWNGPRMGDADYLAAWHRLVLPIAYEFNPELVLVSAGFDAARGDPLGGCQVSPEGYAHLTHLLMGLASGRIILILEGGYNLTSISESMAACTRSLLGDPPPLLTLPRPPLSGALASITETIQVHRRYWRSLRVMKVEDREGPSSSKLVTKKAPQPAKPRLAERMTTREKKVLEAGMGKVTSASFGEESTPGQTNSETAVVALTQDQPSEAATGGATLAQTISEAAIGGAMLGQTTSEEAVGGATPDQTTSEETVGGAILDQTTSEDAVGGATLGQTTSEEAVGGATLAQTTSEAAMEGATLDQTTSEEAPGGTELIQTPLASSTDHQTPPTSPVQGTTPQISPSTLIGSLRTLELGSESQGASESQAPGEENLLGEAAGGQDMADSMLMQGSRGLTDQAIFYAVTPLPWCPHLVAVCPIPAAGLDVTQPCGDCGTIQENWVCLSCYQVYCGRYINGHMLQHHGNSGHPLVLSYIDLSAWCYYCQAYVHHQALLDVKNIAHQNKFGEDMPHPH

[16] = rat, microsomes, 0.75 h, 5 μM, pH 7.4
[17] = human, microsomes, 0.75 h, 5 μM, pH 7.4
[18] = mouse, microsomes, 0.5 h, 5 μM, pH 7.4

Row | Compound | Microsomal Stability MLM, % of remaining parent compound ([1]; mouse liver microsomes 0.5 mg/mL, compound 5 μM, 30 min) [%] | Microsomal Stability RLM, % of remaining parent compound ([2]; rat liver microsomes 0.5 mg/mL, compound 5 μM, 45 min) [%] | Microsomal Stability HLM, % of remaining parent compound ([3]; human liver microsomes 0.5 mg/mL, compound 5 μM, 30 or 45 min) [%] | IC50 [4] [nM] | Microsomal Stability RLM, % of remaining parent compound [2, 16] [%] | IC50 [5] [nM] | Microsomal Stability HLM, % of remaining parent compound [3, 17] [%] | IC50 [6] [nM] | IC50 [7] [nM] | IC50 [8] [nM] | IC50 [9] [nM] | IC50 [10] [nM] | IC50 [11] [nM] | Microsomal Stability MLM, % of remaining parent compound [1, 18] [%] | IC50 [12] [nM] | IC50 [13] [nM] | IC50 [14] [nM] | IC50 [15] [nM]
1 | COc1ccc2c(c1)[C@]13CCCC[C@@H]1[C@H](C2)N(C)CC3 [Dextromethorphan, dextromethorphan, reference compound] | 19 | 5 | 65 | – | – | – | – | – | – | – | – | – | – | – | – | – | – | –
2 | CC(C)n1cnc2c(-c3cccc(NC(=O)CCCCCCC(=O)NO)c3)nc(N3CCOCC3)nc21 [compound 4] | – | – | – | 500 to 2000 | 42 | 10 to 100 | 36 | 500 to 2000 | – | – | – | – | – | – | – | – | – | –
3 | CC(C)n1cnc2c(-c3cccc(OCCCCC(=O)NO)c3)nc(N3CCOCC3)nc21 [compound 10, N-hydroxy-5-(3-(9-isopropyl-2-morpholino-9H-purin-6-yl)phenoxy)pentanamide] | – | – | – | 500 to 2000 | 74 | 100 to 1000 | 87 | 500 to 2000 | 2000 to 10000 | 1000 to 10000 | < 500 | 10 to 100 | 2000 to 10000 | – | – | – | – | –
4 | CC(C)n1cnc2c(-c3cccc(OCCCC(=O)NO)c3)nc(N(C)C)nc21 [compound 31, 4-(3-(2-(dimethylamino)-9-isopropyl-9H-purin-6-yl)phenoxy)-N-hydroxybutanamide] | – | – | – | 500 to 2000 | 25 | 10 to 100 | 90 | 500 to 2000 | 500 to 2000 | – | < 500 | 10 to 100 | 2000 to 10000 | 53 | 500 to 2000 | – | – | –
5 | CCCn1cnc2c(-c3cccc(OCCCC(=O)NO)c3)nc(N3CCOCC3)nc21 [compound 43, N-hydroxy-4-(3-(2-morpholino-9-propyl-9H-purin-6-yl)phenoxy)butanamide] | – | – | – | 500 to 2000 | 54 | 100 to 1000 | 97 | < 500 | 500 to 2000 | – | < 500 | 10 to 100 | 500 to 2000 | 96 | < 500 | – | – | –
6 | CCn1cnc2c(-c3cccc(OCCCC(=O)NO)c3)nc(N3CCOCC3)nc21 [compound 45, 4-(3-(9-ethyl-2-morpholino-9H-purin-6-yl)phenoxy)-N-hydroxybutanamide] | – | – | – | 500 to 2000 | 45 | 100 to 1000 | 105 | 500 to 2000 | 500 to 2000 | – | < 500 | 10 to 100 | 500 to 2000 | 78 | < 500 | – | – | –
7 | CC(C)n1cnc2c(-c3ccc(F)c(OCCCC(=O)NO)c3)nc(N3CCOCC3)nc21 [compound 62, 4-(2-fluoro-5-(9-isopropyl-2-morpholino-9H-purin-6-yl)phenoxy)-N-hydroxybutanamide] | – | – | – | 500 to 2000 | – | – | – | – | 2000 to 10000 | – | < 500 | 10 to 100 | 2000 to 10000 | – | – | 500 to 2000 | – | –
8 | CC(C)n1ccc2c(-c3cccc(OCCCC(=O)NO)c3)nc(N3CCCC3)nc21 [compound 75, N-hydroxy-4-(3-(7-isopropyl-2-(pyrrolidin-1-yl)-7H-pyrrolo[2,3-d]pyrimidin-4-yl)phenoxy)butanamide] | – | – | – | 500 to 2000 | – | – | – | – | – | – | < 500 | 10 to 100 | 2000 to 10000 | – | – | 2000 to 10000 | 500 to 2000 | –
9 | CC(C)n1ccc2c(-c3cccc(OCCCC(=O)NO)c3)nc(N3CCOCC3)nc21 [compound 76, N-hydroxy-4-(3-(7-isopropyl-2-morpholino-7H-pyrrolo[2,3-d]pyrimidin-4-yl)phenoxy)butanamide] | – | – | – | 500 to 2000 | – | 10 to 100 | – | 500 to 2000 | – | – | < 500 | 10 to 100 | 500 to 2000 | – | < 500 | 500 to 2000 | < 500 | –
10 | CC(C)n1cnc2c(N3CCOCC3)nc(-c3ccc(OCCCC(=O)NO)cc3)nc21 [compound 82, N-hydroxy-4-(4-(9-isopropyl-6-morpholino-9H-purin-2-yl)phenoxy)butanamide] | – | – | – | 2000 to 10000 | 64 | – | 83 | – | > 10000 | – | 500 to 2000 | 10 to 100 | > 10000 | – | – | – | – | –
11 | CCn1c(CN(C)Cc2ccc(C(=O)NO)cc2)nc2c(N3CCOCC3)nc(-c3ccc(OC)nc3)nc21 [compound 96, 4-((((9-ethyl-2-(6-methoxypyridin-3-yl)-6-morpholino-9H-purin-8-yl)methyl)(methyl)amino)methyl)-N-hydroxybenzamide] | – | – | – | 500 to 2000 | – | – | – | 2000 to 10000 | 500 to 2000 | – | 500 to 2000 | 100 to 1000 | 2000 to 10000 | – | 500 to 2000 | 500 to 2000 | 500 to 2000 | –
12 | CCn1c(CN(C)CCCCCC(=O)NO)nc2c(N3CCOCC3)nc(-c3cccc(CO)c3)nc21 [compound 97] | – | – | – | 2000 to 10000 | – | 10 to 100 | – | – | – | 10 to 100 | 500 to 2000 | 100 to 1000 | 2000 to 10000 | – | – | 2000 to 10000 | – | 100 to 1000
13 | CCC(CC)n1cnc2c(-c3cccc(OCCCC(=O)NO)c3)nc(N3CCOCC3)nc21 [compound 101, N-hydroxy-4-(3-(2-morpholino-9-(pentan-3-yl)-9H-purin-6-yl)phenoxy)butanamide] | – | – | – | < 500 | – | – | – | – | – | – | < 500 | 10 to 100 | – | – | < 500 | 500 to 2000 | 500 to 2000 | –
